How the values were obtained:
BAZ2A bromodomain [1] = biological target: T1, BAZ2A bromodomain (Homo sapiens, UniProt Q9UIF9); experiment: AlphaScreen competition binding assay (BAZ2A bromodomain binding to acetylated peptide); conditions: for IC50: AlphaScreen dose-response; for remaining binding at 500 µM: single dose, compound concentration 500 μM, read-out: % residual BAZ2A activity; for decrease of binding of BAZ2A bromodomain to the acetylated peptide: tested at 500 μM, single dose in duplicate
T1 construct: made in house
T1 sequence (Q9UIF9 1793-1897 limits assumed): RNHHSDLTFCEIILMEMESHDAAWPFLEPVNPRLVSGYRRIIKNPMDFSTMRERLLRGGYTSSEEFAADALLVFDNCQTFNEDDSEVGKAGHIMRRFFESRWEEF
Protocol: The 36 selected molecules were tested by AlphaScreen at single doses in duplicate. Six molecules (compounds 8, 9, 11, 14, 18, and 25) decreased binding of BAZ2A bromodomain to the acetylated peptide by at least 50% when tested at 500 μM. […]
AlphaScreen assay was conducted as detailed in [11]. […]

BAZ2A bromodomain [2] = biological target: T1, BAZ2A bromodomain; experiment: as above; conditions: single dose 100 μM; IC50 not determined; read-out: Residual activity when tested in single dose

SMILES | IC50 (BAZ2A bromodomain [1]) [µM] | further results
NC1CCCN(S(=O)(=O)c2cccc3cnccc23)C1 (stereo not shown) [Compound 8] | > 200 | remaining binding at 500 µM (BAZ2A bromodomain [1]): 49 ± 7%; decrease of binding of BAZ2A bromodomain to the acetylated peptide (BAZ2A bromodomain [1]): at least 50%
O=S(=O)(NC1CCNC1)c1cccc2cnccc12 (stereo not shown) [Compound 9] | > 200 | remaining binding at 500 µM (BAZ2A bromodomain [1]): 44 ± 3%; decrease of binding of BAZ2A bromodomain to the acetylated peptide (BAZ2A bromodomain [1]): at least 50%
C/N=C(/NC)NC1CCN(c2cc(OC)cc(OC)c2)CC1 [Compound 11] | > 200 | remaining binding at 500 µM (BAZ2A bromodomain [1]): 48 ± 5%; decrease of binding of BAZ2A bromodomain to the acetylated peptide (BAZ2A bromodomain [1]): at least 50%
NC(=O)c1cc(OC2CCNCC2)ccn1 [Compound 13] |  | remaining binding at 500 µM (BAZ2A bromodomain [1]): 75 ± 2%
NCc1ccc(N2CCNC(=O)C2)cc1 [Compound 14] | > 200 | remaining binding at 500 µM (BAZ2A bromodomain [1]): 32 ± 4%; decrease of binding of BAZ2A bromodomain to the acetylated peptide (BAZ2A bromodomain [1]): at least 50%
CC(=O)N1CCN(c2ccc(NC(=N)N)cc2)CC1 [Compound 18] | > 200 | remaining binding at 500 µM (BAZ2A bromodomain [1]): 37 ± 4%; decrease of binding of BAZ2A bromodomain to the acetylated peptide (BAZ2A bromodomain [1]): at least 50%
CCc1c(-c2csc(N=C(N)N)n2)[nH]c(C)c1C(C)=O [Compound 25] | 33.2 ± 0.3 | ligand efficiency (LE) (BAZ2A bromodomain [1]): 0.31 kcal/mol per heavy atom; lipophilic ligand efficiency (LLE) (BAZ2A bromodomain [1]): 2.4; remaining binding at 500 µM (BAZ2A bromodomain [1]): 5 ± 0.6%; decrease of binding of BAZ2A bromodomain to the acetylated peptide (BAZ2A bromodomain [1]): at least 50%
NC1CCN(C(=O)c2ccc(=O)[nH]c2)CC1 [Compound 36] |  | remaining binding at 500 µM (BAZ2A bromodomain [1]): 71 ± 3%
CCc1c(-c2csc(N)n2)[nH]c(C)c1C(C)=O [Compound 43] | 76.2 ± 8.6 | 
CCc1c(-c2csc(CCCN)n2)[nH]c(C)c1C(C)=O [Compound 44] | 57.9 ± 6 | 
CCc1c(-c2csc(CCNC)n2)[nH]c(C)c1C(C)=O [Compound 45] | 109 ± 12.3 | 
CCc1c(-c2csc(N3CCNCC3)n2)[nH]c(C)c1C(C)=O [Compound 47] | 33.3 ± 0.4 | ligand efficiency (LE) (BAZ2A bromodomain [1]): 0.29 kcal/mol per heavy atom; lipophilic ligand efficiency (LLE) (BAZ2A bromodomain [1]): 1.9
CCc1c(-c2csc(C3CCNCC3)n2)[nH]c(C)c1C(C)=O [Compound 48] | 94.6 ± 11.7 | 
CCc1c(-c2csc(C3CCCNC3)n2)[nH]c(C)c1C(C)=O (stereo not shown) [Compound 49] | 47 ± 5 | 
CCc1c(-c2csc(C3CCCCN3)n2)[nH]c(C)c1C(C)=O (stereo not shown) [Compound 50] | 76.8 ± 6.4 | 
CCc1c(-c2csc(C3COCCN3)n2)[nH]c(C)c1C(C)=O (stereo not shown) [Compound 52] | 93.5 ± 9.7 | 
CCc1c(-c2csc(C3CCNC3)n2)[nH]c(C)c1C(C)=O (stereo not shown) [Compound 53] | 54 ± 0.2 | 
CCc1c(-c2csc(C3(NC(C)=O)CCNC3)n2)[nH]c(C)c1C(C)=O (stereo not shown) [Compound 54] | 61.3 ± 10.6 | 
CCc1c(-c2csc(C3CCN(C(C)=O)C3)n2)[nH]c(C)c1C(C)=O (stereo not shown) [Compound 55] | 114 ± 22.1 | 
CCc1c(-c2csc(C3CCN(C(N)=O)C3)n2)[nH]c(C)c1C(C)=O (stereo not shown) [Compound 56] | > 100 | 
CCc1c(-c2csc(C3CCCN3C(C)=O)n2)[nH]c(C)c1C(C)=O (stereo not shown) [Compound 57] | 93.2 ± 10.1 | 
CCc1c(-c2csc(C3CCCN3C(N)=O)n2)[nH]c(C)c1C(C)=O (stereo not shown) [Compound 58] | > 100 | 

SMILES | IC50 (BAZ2A bromodomain [1]) [µM] | further results
CCc1c(-c2csc(CN3CCOCC3)n2)[nH]c(C)c1C(C)=O [Compound 59] | 74.2 ± 9.1 | 
CCc1c(-c2csc(Cc3ccc(N)cc3)n2)[nH]c(C)c1C(C)=O [Compound 60] | > 100 | 
CCc1c(-c2csc(CN3CCNCC3)n2)[nH]c(C)c1C(C)=O [Compound 61] | 54 ± 0.2 | 
CCc1c(-c2csc(NC3CCNCC3)n2)[nH]c(C)c1C(C)=O [Compound 62] | 53.9 ± 0.2 | 
CCc1c(-c2csc(CN3CCC(N)CC3)n2)[nH]c(C)c1C(C)=O [Compound 63] | 60.5 ± 9.4 | 
CCc1c(-c2csc(CN3CCN(C(C)=O)CC3)n2)[nH]c(C)c1C(C)=O [Compound 64] | 75.7 ± 9.2 | 
CC(=O)c1c(C)[nH]c(-c2csc(CN3C(=O)CNC3=O)n2)c1C [Compound 65] | 54 ± 0.3 | 
CCc1c(-c2csc(C3(N)CCCC3)n2)[nH]c(C)c1C(C)=O [Compound 66] | 99.7 ± 10.9 | 
Cc1[nH]c(-c2csc(-c3cc[nH]n3)n2)c2c1C(=O)CCC2 [Compound 69] | 74.3 ± 4.7 | 
CCc1c(-c2csc(-c3cnc[nH]3)n2)[nH]c(C)c1C(C)=O [Compound 72] | 54.6 ± 7.1 | 
CCc1c(-c2csc(N3CCNCC3)n2)[nH]c(C)c1C(N)=O [Compound 74] | > 100 | 
CCCNC(=O)c1c(C)[nH]c(-c2csc(N3CCNCC3)n2)c1CC [Compound 75] |  | remaining binding at 100 µM (BAZ2A bromodomain [2]): > 50%
CC(=O)c1c(C)[nH]c(-c2csc(N3CCNCC3)n2)c1-c1ccnn1C [Compound 76] |  | remaining binding at 100 µM (BAZ2A bromodomain [2]): > 50%
CC(=O)c1c(C)[nH]c(-c2csc(N3CCNCC3)n2)c1CCC(F)(F)F [Compound 77] | 38.9 ± 2 | 
CC(=O)c1c(C)[nH]c(-c2csc(N3CCNCC3)n2)c1C1CCCC1 [Compound 78] | 40.1 ± 3.4 | 
CC(=O)c1c(C)[nH]c(-c2csc(N3CCNCC3)n2)c1CCC(C)C [Compound 79] | 12.5 ± 0.4 | 
Cc1[nH]c(-c2csc(N3CCNCC3)n2)c2c1C(=O)CCC2 [Compound 80] | 11.4 ± 0.3 | 
Cc1[nH]c(-c2csc(N3CCNCC3)n2)c2c1C(=O)CC(C)(C)C2 [Compound 81] | 11.8 ± 0.3 | 
Cc1[nH]c(-c2csc(N3CCNCC3)n2)c2c1C(=O)CCC2(C)C [Compound 82] | 44.6 ± 5.6 | 
Cc1[nH]c(-c2csc(NC(=N)N)n2)c2c1C(=O)CCC2 [Compound 83] | 11 ± 0.2 | 
Cc1[nH]c(-c2csc(NC(=N)N)n2)c2c1C(=O)CC(C)(C)C2 [Compound 84] | 29.2 ± 0.3 | 
CCc1c(-c2csc(N3CCN(Cc4cc5n(n4)CCC5)CC3)n2)[nH]c(C)c1C(C)=O [Compound 86] | > 100 | 

SMILES | IC50 (BAZ2A bromodomain [1]) [µM] | further results
CCc1c(-c2csc(N3CCN(CC4CCN(CC)CC4)CC3)n2)[nH]c(C)c1C(C)=O [Compound 87] | 46.6 ± 2.5 | 
CCc1c(-c2csc(N3CCN(Cc4cn(CC(N)=O)nn4)CC3)n2)[nH]c(C)c1C(C)=O [Compound 88] | 42.9 ± 4.6 | 
CCc1c(-c2csc(N3CCN(Cc4cnn5c4OCCC5)CC3)n2)[nH]c(C)c1C(C)=O [Compound 89] |  | remaining binding at 100 µM (BAZ2A bromodomain [2]): > 50%
CCc1c(-c2csc(N3CCN(Cc4ccsc4S(N)(=O)=O)CC3)n2)[nH]c(C)c1C(C)=O [Compound 90] |  | remaining binding at 100 µM (BAZ2A bromodomain [2]): > 50%
CCc1c(-c2csc(N3CCN(Cc4cc(S(N)(=O)=O)co4)CC3)n2)[nH]c(C)c1C(C)=O [Compound 91] |  | remaining binding at 100 µM (BAZ2A bromodomain [2]): > 50%
CCc1c(-c2csc(N3CCN(Cc4n[nH]cc4C)CC3)n2)[nH]c(C)c1C(C)=O [Compound 92] | 13.1 ± 0.9 | 
CCc1c(-c2csc(N3CCN(Cc4c[nH]c(=O)[nH]c4=O)CC3)n2)[nH]c(C)c1C(C)=O [Compound 93] |  | remaining binding at 100 µM (BAZ2A bromodomain [2]): > 50%
CCc1c(-c2csc(N3CCN(Cc4c[nH]c5ncncc45)CC3)n2)[nH]c(C)c1C(C)=O [Compound 95] | 12.9 ± 2 | 
CCc1c(-c2csc(N3CCN(Cc4conc4COC)CC3)n2)[nH]c(C)c1C(C)=O [Compound 96] | 85.1 ± 6.8 | 
CCc1c(-c2csc(N3CCN(Cc4ccnn4CC(C)C)CC3)n2)[nH]c(C)c1C(C)=O [Compound 97] | 49.3 ± 5.7 | 
Cc1c[nH]nc1CN1CCN(c2nc(-c3[nH]c(C)c4c3CCCC4=O)cs2)CC1 [Compound 98] | 12.6 ± 1.4 | 
Cc1[nH]c(-c2csc(N3CCN(Cc4c[nH]c5ncncc45)CC3)n2)c2c1C(=O)CCC2 [Compound 99] | 10.9 ± 0.2 | 
CCc1c(-c2csc(N3CCNCC3C(=O)NC3(c4ncccc4F)CC3)n2)[nH]c(C)c1C(C)=O (stereo not shown) [Compound 100] | 36.5 ± 4.1 | 
CCc1c(-c2csc(N3CCNCC3C(=O)NC3(Cc4ccccc4Br)CC3)n2)[nH]c(C)c1C(C)=O (stereo not shown) [Compound 102] | 10.6 ± 0.2 | 
CCc1c(-c2csc(N3CCNCC3C(=O)NCCc3cc4ccccc4[nH]3)n2)[nH]c(C)c1C(C)=O (stereo not shown) [Compound 105] | 33.2 ± 0.3 | 
CCc1c(-c2csc(N3CCNCC3C(=O)NCC(F)(F)F)n2)[nH]c(C)c1C(C)=O (stereo not shown) [Compound 107] | 14.1 ± 0.2 | 
CCc1c(-c2csc(N3CCNCC3C(=O)NCC(C)(C)CC)n2)[nH]c(C)c1C(C)=O (stereo not shown) [Compound 108] | 35.1 ± 0.2 | 
CCc1c(-c2csc(N3CCNCC3C(=O)NCCCCO)n2)[nH]c(C)c1C(C)=O (stereo not shown) [Compound 109] | 31.3 ± 0.7 | 
CCc1c(-c2csc(N3CCNCC3C(=O)NCC(N)=O)n2)[nH]c(C)c1C(C)=O (stereo not shown) [Compound 110] | 22 ± 2.3 | 
CCc1c(-c2csc(N3CCNCC3C(=O)NCCC(F)(F)F)n2)[nH]c(C)c1C(C)=O (stereo not shown) [Compound 111] | 11 ± 0.2 | 
CCc1c(-c2csc(N3CCNCC3C(=O)NC(CO)CO)n2)[nH]c(C)c1C(C)=O (stereo not shown) [Compound 112] | 42 ± 5.2 | 
CCc1c(-c2csc(N3CCNCC3C(=O)NCC(C)(C)C)n2)[nH]c(C)c1C(C)=O (stereo not shown) [Compound 113] | 14 ± 0.3 | 

From publication PMC9465710, “Identification of a BAZ2A-Bromodomain Hit Compound by Fragment Growing” (ACS Medicinal Chemistry Letters, 2022)
